Patent US20190226949A1, “IRIDIUM COMPLEXES FOR CELLULAR IMAGING” (UNIVERSITY OF SOUTH AUSTRALIA, priority 2016, published 2019)
Where “and” joins values, the source holds several entries; their conditions need not be identical. Equal values may be shown once.

Experiments:
[1] = Photophysical measurements (absorption, emission, lifetime, quantum yield) in diluted solutions; type: physicochemical; settings: for Emission λem / τaer, excited state lifetime (relative weight in parentheses) / τdeaer, excited state lifetime (relative weight in parentheses): 298K; for Φaer, quantum yield / Φdeaer, quantum yield: versus Ru(bpy)3^2+ in water (φr = 0.028); for τdeaer, excited state lifetime (relative weight in parentheses) / Φdeaer, quantum yield: deaerated; for knr: calculated as [(1 − φ)/τ] from deaerated solutions; for kr: calculated as [φ/τ] from deaerated solutions; for Φ, quantum yield: versus Ru(bpy)3^2+ in water
Source text: A summary of the photophysical data for the complexes as diluted solutions (10^−5 M) in dichloromethane, water, PBS, lysosomal fluid solution, and ethyl laurate is reported in Table 1. All the listed aqueous media also contain 0.1% DMSO to favour the solubilisation of the complexes. The various solvents have been chosen to identify potential modulations on the photophysical behaviour of the iridium complexes in diverse cellular environments such as cytoplasm, endosome/lysosomes acidic organelles, or lipid-rich compartments like membranes, endoplasmic reticulum, and lipid droplets. In general, the photophysical characteristics were measured in aerated solutions to take into account the presence of oxygen in live cells. On the other hand, dichloromethane solutions were compared as aerated and degassed to confirm oxygen sensitivity and triplet character of the excited states of the complexes.
Absorption spectra were recorded at room temperature using a Cary 4000 UV/Vis spectrometer. Uncorrected steady state emission and excitation spectra were recorded on an Edinburgh FLSP980-S2S2-stm spectrometer equipped with: i) a temperature-monitored cuvette holder; ii) 450 W Xenon arc lamp; iii) double excitation and emission monochromators; iv) a Peltier cooled Hamamatsu R928P photomultiplier tube (spectral range 200-870 nm). Emission and excitation spectra were corrected for source intensity (lamp and grating) and emission spectral response (detector and grating) by a calibration curve supplied with the instrument. According to the approach described by Demas and Crosby, luminescence quantum yields (Φem) were measured in optically dilute solutions (O.D.<0.1 at excitation wavelength) obtained from absorption spectra on a wavelength scale [nm] and compared to the reference emitter by the following equation: […]
where A is the absorbance at the excitation wavelength (λ), I is the intensity of the excitation light at the excitation wavelength (λ), n is the refractive index of the solvent, D is the integrated intensity of the luminescence and Φ is the quantum yield. The subscripts r and x refer to the reference and the sample, respectively. The quantum yield determinations were performed at identical excitation wavelength for the sample and the reference, therefore cancelling the I(λr)/I(λx) term in the equation. The quantum yields of complexes were measured against Rubipy in water (Φr=0.028). Emission lifetimes (z) were determined with the time correlated single photon counting technique (TCSPC) with the same Edinburgh FLSP980-S2S2-stm spectrometer using either a pulsed picosecond LED (EPLED/EPL 377 nm, FHWM<800 ps) or a microsecond flashlamp. The goodness of fit was assessed by minimising the reduced χ^2 function and by visual inspection of the weighted residuals. The solvents used for the preparation of the solutions for the photophysical investigations were of LR grade and the water was deionised. Degassing of the dichlorometane solutions was performed using the freeze-pump-thaw method. Experimental uncertainties are estimated to be ±8% for lifetime determinations, ±20% for quantum yields, ±2 nm and ±5 nm for absorption and emission peaks, respectively.

[2] = Lipophilicity by shake-flask method (7.4-buffered PBS / n-octanol); type: physicochemical; settings: 7.4-buffered PBS solution and n-octanol
Procedure: The lipophilicity of the iridium complexes was measured by the shake-flask method using 7.4-buffered PBS and n-octanol as solvents (Table 2). The values range between 1.49 and 2.68 are typical for cyclometalated iridium complexes that have not been bioconjugated. […] In general, neutral complexes have log D7.4 values above 2.00 and there is an increased in lipophilicity of extending the tetrazolato ligand with the addition of a phenyl spacer in [Ir(ppy)2(TzPyPhCN)], or by extending the conjugation on passing from pyridine to quinoline or isoquinoline for [Ir(ppy)2(TzQn)] and [Ir(ppy)2(TziQn)]. Methylation in all cases reduces lipophilicity to log D7.4 values […], with the same trend within the family of methylated complexes as previously observed for the neutral ones.

Structure (SMILES) | Emission λem ([1]; DCM, 10^−5 M) | τaer, excited state lifetime (relative weight in parentheses) ([1]; DCM, aerated) [ns] | Φaer, quantum yield ([1]; DCM, aerated) | τdeaer, excited state lifetime (relative weight in parentheses) ([1]; DCM) [ns] | Φdeaer, quantum yield ([1]; DCM) | knr ([1]; DCM) | kr ([1]; DCM) | Absorption λabs [nm] (10^4ε [M^−1cm^−1]) ([1]; H2O with 0.1% DMSO, 10^−5 M) | Emission λem ([1]; H2O with 0.1% DMSO, aerated) [nm] | Φ, quantum yield ([1]; H2O with 0.1% DMSO, aerated) | logD7.4, distribution coefficient [2] | Absorption λabs [nm] (10^4ε [M^−1cm^−1]) ([1]; DCM, 10^−5 M)
N#Cc1ccc2[n+](c1)[Ir]13([c]4cc(F)cc(F)c4-c4cccc[n+]41)([c]1cc(F)cc(F)c1-c1cccc[n+]13)[n]1nnnc1-2 [[Ir(F2ppy)2(TzPyCN)]] | 542 nm | 140 | 0.042 | 697 | 0.406 | 0.852 10^6s^−1 | 5.825 10^5s^−1 | 256 (4.83) nm (10^4ε [M^−1cm^−1]) and 302 (3.36) nm (10^4ε [M^−1cm^−1]) and 366 (1.16) nm (10^4ε [M^−1cm^−1]) | 552 | 0.057 | 2.01 ± 0.05 | –
c1cc[c]2c(c1)-c1cccc[n+]1[Ir]213([c]2ccccc2-c2cccc[n+]21)[n]1nnnc1-c1c2ccccc2cc[n+]13 [[Ir(ppy)2(TziQn)]] | 535, nm and 575 nm and 620 nm | 497 | 0.036 | 6713 | 0.144 | 0.128 10^6s^−1 | 0.214 10^5s^−1 | 268 (3.42) nm (10^4ε [M^−1cm^−1]) and 350 (2.00) nm (10^4ε [M^−1cm^−1]) and 435 (0.80) nm (10^4ε [M^−1cm^−1]) | 590 | 0.018 | 2.57 ± 0.05 | 260 (9.77) nm (10^4ε [M^−1cm^−1]) and 340 (3.13) nm (10^4ε [M^−1cm^−1]) and 424 (0.75) nm (10^4ε [M^−1cm^−1])
c1cc[c]2c(c1)-c1cccc[n+]1[Ir]213([c]2ccccc2-c2cccc[n+]21)[n]1nnnc1-c1ccc2ccccc2[n+]13 [[Ir(ppy)2(TzQn)]] | 580 nm | 153 | 0.021 | 831 | 0.065 | 1.125 10^6s^−1 | 0.782 10^5s^−1 | 266 (4.41) nm (10^4ε [M^−1cm^−1]) and 350 (2.35) nm (10^4ε [M^−1cm^−1]) and 425 (0.97) nm (10^4ε [M^−1cm^−1]) | 600 | 0.039 | 2.23 ± 0.04 | 263 (8.44) nm (10^4ε [M^−1cm^−1]) and 345 (1.97) nm (10^4ε [M^−1cm^−1]) and 428 (0.42) nm (10^4ε [M^−1cm^−1])
